What was measured:
human skin tissue = assay: Bonding of human skin tissue, histotoxicity/cytotoxicity
[1] = used as suture supplements or internally; site of application; cited from earlier work

Question: Which “Histotoxicity or cytotoxicity on bonding human skin tissue” value (human skin tissue) does the source give for `C=C(C#N)C(=O)OCCCC` [n-butyl cyanoacrylate, n-butyl-2-cyanoacrylate] here?
Answer: The value was “without causing histoxicity or cytotoxicity”.

Question: And the “Time after application at which polymeric residue was still observed by histological examination” value [1]?
Answer: Its value is ≤ 12 months.

Source: patent publication US6342213B1, “Methods for treating non-suturable wounds by use of cyanoacrylate adhesives” (MedLogic Global Corporation, priority 1992, dated 2002)
